Test results from patent US8399681B2, “Substituted aminothiazolone indazoles as estrogen related receptor-alpha modulators” (Janssen Pharmaceutica NV, priority 2009, dated 2013).

Biological target: T1, ERR1 (also known as ERR-α or ERR-1) (Homo sapiens, UniProt P11474)
T1 sequence (P11474 193-421 limits assumed): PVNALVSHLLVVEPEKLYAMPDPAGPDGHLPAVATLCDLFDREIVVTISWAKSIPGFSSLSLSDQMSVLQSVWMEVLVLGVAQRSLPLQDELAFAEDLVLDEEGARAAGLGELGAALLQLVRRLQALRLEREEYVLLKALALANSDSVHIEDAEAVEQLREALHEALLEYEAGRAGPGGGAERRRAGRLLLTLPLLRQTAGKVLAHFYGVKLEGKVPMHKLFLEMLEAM
Experiment: TR-FRET assay (disruption of co-activator peptide binding)
Type: biochemical
Details: 6His-tagged ERR1 LBD, GST-hSRC2 co-activator polypeptide; average of 3 independent experiments
Method in brief: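 Compound-induced loss of co-activator recruitment, read by time-resolved FRET (excitation 340 nm; 615 and 665 nm emission) after 4-18 h at 25 °C. Reagents: 6 nM ERR1LBD, 6 nM GST-SRC-2, 30 nM Eu cryptate, 7.5 nM XL665, pH 8 Tris buffer. Values: hyperbolic fits averaged over 3 independent runs.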

COCC(=O)N1CCN(C2=NC(=O)/C(=C/c3ccc4c(cnn4Cc4ccc(Cl)cc4C(F)(F)F)c3)S2)CC1 [Example 91, 5-[1-(4-Chloro-2-trifluoromethyl-benzyl)-1H-indazol-5-ylmethylene]-2-[4-(2-methoxy-acetyl)-piperazin-1-yl]-thiazol-4-one]
EC50: 0.0087 µM

O=C1N=C(N2CCOC[C@@H]2C(=O)O)S/C1=C\c1ccc2c(cnn2Cc2ccc(Cl)cc2C(F)(F)F)c1 [Example 194, 4-[5-({1-[4-Chloro-2-(trifluoromethyl)benzyl]-1H-indazol-5-yl}methylidene)-4-oxo-4,5-dihydro-1,3-thiazol-2-yl]morpholine-3-(R)-carboxylic acid]
EC50: 0.0235 µM

CC1(C(=O)O)CCN(C2=NC(=O)/C(=C/c3ccc4c(cnn4Cc4ccc(Cl)cc4C(F)(F)F)c3)S2)CC1 [Example 75, 1-{5-[1-(4-Chloro-2-trifluoromethyl-benzyl)-1H-indazol-5-ylmethylene]-4-oxo-4,5-dihydro-thiazol-2-yl}-4-methyl-piperidine-4-carboxylic acid]
EC50: 0.0734 µM

O=C1N=C(N2CCN(CC(F)(F)F)CC2)S/C1=C\c1ccc2c(cnn2Cc2ccc(Cl)cc2C(F)(F)F)c1 [Example 58, 5-[1-(4-Chloro-2-trifluoromethyl-benzyl)-1H-indazol-5-ylmethylene]-2-[4-(2,2,2-trifluoro-ethyl)-piperazin-1-yl]-thiazol-4-one]
EC50: 0.042 µM

O=C1N=C(N2CCO[C@H](CO)C2)S/C1=C\c1ccc2c(cnn2Cc2ccc(O)cc2C(F)(F)F)c1 [Example 251, 2-[(2S)-2-(Hydroxymethyl)morpholin-4-yl]-5-({1-[4-hydroxy-2-(trifluoromethyl)benzyl]-1H-indazol-5-yl}methylidene)-1,3-thiazol-4(5H)-one]
EC50: 0.004 µM

O=C1N=C(N2CCN(CCO)CC2)S/C1=C\c1ccc2c(cnn2Cc2ccc(Cl)cc2C(F)(F)F)c1 [Compound 13, 5-[1-(4-Chloro-2-trifluoromethyl-benzyl)-1H-indazol-5-ylmethylene]-2-[4-(2-hydroxy-ethyl)piperazin-1-yl]-thiazol-4-one]
EC50: 0.0047 µM

O=C1N[C@@H]2C[C@H](CO1)N(C1=NC(=O)/C(=C/c3ccc4c(cnn4Cc4ccc(C(F)(F)F)cc4C(F)(F)F)c3)S1)C2 [Example 214, (1R,6R)-7-[5-({1-[2,4-Bis(trifluoromethyl)benzyl]-1H-indazol-5-yl}methylidene)-4-oxo-4,5-dihydro-1,3-thiazol-2-yl]-4-oxa-2,7-diazabicyclo[4.2.1]nonan-3-one]
EC50: 0.008 µM

CC(=O)N(C)C1CCN(C2=NC(=O)/C(=C/c3ccc4c(cnn4Cc4ccc(Cl)cc4C(F)(F)F)c3)S2)CC1 [Example 155, N-(1-{5-[1-(4-Chloro-2-trifluoromethyl-benzyl)-1H-indazol-5-ylmethylene]-4-oxo-4,5-dihydro-thiazol-2-yl}-piperidin-4-yl)-N-methyl-acetamide]
EC50: 0.034 µM

O=C1N=C(N2CCC(c3nnn[nH]3)CC2)S/C1=C\c1ccc2c(cnn2Cc2ccc(C(F)(F)F)cc2C(F)(F)F)c1 [Example 109, 5-[1-(2,4-Bis-trifluoromethyl-benzyl)-1H-indazol-5-ylmethylene]-2-[4-(1H-tetrazol-5-yl)piperidin-1-yl]-thiazol-4-one]
EC50: 0.036 µM

COC[C@H]1CN(C2=NC(=O)/C(=C/c3ccc4c(cnn4Cc4ccc(C(F)(F)F)cc4C(F)(F)F)c3)S2)CCN1 [Example 210, 5-({1-[2,4-Bis(trifluoromethyl)benzyl]-1H-indazol-5-yl}methylidene)-2-[3-(R)-(methoxymethyl)piperazin-1-yl]-1,3-thiazol-4(5H)-one]
EC50: 0.0248 µM

O=C1N=C(N2CCN[C@@H](CO)C2)S/C1=C\c1ccc2c(cnn2Cc2ccc(Cl)cc2C(F)(F)F)c1 [Example 132, 5-[1-(4-Chloro-2-trifluoromethyl-benzyl)-1H-indazol-5-ylmethylene]-2-(3-(R)-hydroxymethyl-piperazin-1-yl)-thiazol-4-one]
EC50: 0.0107 µM
